Laboratory results from patent publication US20200392158A1, “INHIBITORS OF LEUCINE RICH REPEAT KINASE 2” (GLAXOSMITHKLINE INTELLECTUAL PROPERTY DEVELOPMENT LIMITED, priority 2017, published 2020).

Legend:
[1] = target: T1, LRRK2 kinase in SH-SY5Y cells over-expressing recombinant full length LRRK2 (Homo sapiens, UniProt Q5S007); test: Recombinant cellular LRRK2 AlphaScreen assay (LRRK2 Ser935 phosphorylation); type: cell-based; conditions: 60 min
T1 construct: A BacMam virus expressing full length recombinant LRRK2 was purchased from Invitrogen; host or cells: SH-SY5Y human neuroblastoma cells transduced with BacMam LRRK2 virus
T1 sequence (Q5S007 whole entry): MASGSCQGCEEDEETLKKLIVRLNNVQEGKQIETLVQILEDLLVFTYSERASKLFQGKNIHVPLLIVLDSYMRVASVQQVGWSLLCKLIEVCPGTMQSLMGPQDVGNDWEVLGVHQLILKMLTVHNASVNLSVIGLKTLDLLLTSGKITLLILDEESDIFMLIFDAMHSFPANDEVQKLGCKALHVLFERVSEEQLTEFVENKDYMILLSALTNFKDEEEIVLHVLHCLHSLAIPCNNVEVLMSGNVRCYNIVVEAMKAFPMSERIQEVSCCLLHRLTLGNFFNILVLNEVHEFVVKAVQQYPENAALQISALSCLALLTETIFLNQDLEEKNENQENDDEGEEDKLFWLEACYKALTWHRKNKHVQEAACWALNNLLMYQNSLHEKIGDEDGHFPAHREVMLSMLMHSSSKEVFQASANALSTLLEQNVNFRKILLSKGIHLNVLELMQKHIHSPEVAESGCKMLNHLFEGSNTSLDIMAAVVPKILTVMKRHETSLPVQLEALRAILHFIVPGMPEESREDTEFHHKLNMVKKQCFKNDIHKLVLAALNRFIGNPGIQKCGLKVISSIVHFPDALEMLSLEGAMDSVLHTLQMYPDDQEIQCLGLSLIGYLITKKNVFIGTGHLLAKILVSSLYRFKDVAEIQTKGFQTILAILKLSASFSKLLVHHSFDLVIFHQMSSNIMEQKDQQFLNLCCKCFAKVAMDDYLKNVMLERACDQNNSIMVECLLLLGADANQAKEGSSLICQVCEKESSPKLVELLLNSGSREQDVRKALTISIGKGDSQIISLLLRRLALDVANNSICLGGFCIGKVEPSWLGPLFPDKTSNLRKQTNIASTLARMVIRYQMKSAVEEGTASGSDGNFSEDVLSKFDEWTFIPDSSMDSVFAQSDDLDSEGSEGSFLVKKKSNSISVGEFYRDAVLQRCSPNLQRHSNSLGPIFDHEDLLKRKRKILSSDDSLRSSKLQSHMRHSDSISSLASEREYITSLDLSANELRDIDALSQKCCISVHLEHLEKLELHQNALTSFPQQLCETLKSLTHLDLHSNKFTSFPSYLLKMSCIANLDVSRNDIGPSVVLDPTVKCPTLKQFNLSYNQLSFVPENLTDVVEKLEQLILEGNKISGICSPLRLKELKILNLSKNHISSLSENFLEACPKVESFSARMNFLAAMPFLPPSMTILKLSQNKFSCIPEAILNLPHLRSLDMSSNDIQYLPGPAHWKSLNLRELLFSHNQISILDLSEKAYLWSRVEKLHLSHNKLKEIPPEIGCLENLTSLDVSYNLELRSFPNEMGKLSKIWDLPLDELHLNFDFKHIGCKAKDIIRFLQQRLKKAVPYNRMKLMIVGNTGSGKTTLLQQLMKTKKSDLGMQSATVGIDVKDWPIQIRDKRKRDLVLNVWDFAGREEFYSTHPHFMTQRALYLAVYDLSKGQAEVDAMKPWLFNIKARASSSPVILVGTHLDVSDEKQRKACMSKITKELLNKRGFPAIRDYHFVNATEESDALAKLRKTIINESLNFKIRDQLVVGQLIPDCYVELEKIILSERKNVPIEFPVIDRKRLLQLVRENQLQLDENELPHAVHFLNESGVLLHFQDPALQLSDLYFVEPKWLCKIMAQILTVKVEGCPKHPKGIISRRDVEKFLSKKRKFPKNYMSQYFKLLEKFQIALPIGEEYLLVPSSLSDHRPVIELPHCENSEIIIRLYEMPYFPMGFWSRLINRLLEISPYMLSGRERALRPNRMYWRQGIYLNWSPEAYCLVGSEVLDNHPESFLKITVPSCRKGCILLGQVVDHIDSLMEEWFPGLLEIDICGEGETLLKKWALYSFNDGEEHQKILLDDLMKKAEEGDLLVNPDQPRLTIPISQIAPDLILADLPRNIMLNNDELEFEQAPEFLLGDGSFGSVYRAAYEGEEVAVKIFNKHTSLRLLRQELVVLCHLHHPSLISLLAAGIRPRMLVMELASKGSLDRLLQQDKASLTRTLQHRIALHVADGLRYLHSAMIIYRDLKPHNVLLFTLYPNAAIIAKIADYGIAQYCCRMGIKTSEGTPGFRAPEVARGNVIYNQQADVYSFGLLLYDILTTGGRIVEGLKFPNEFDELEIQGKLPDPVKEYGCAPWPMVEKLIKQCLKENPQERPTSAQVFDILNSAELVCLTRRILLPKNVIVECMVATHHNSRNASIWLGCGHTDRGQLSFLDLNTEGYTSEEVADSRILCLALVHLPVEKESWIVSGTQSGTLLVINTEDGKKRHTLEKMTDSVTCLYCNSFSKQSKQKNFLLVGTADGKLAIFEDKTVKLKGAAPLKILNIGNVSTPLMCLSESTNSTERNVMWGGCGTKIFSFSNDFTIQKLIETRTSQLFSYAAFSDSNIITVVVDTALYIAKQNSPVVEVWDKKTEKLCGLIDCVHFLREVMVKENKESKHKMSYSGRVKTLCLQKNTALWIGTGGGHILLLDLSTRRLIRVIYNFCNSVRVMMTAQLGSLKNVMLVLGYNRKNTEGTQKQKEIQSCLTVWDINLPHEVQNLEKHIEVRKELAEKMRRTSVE
Outline: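 Read-out is AlphaScreen of LRRK2 pSer935 over total LRRK2 in lysates of SH-SY5Y cells over-expressing full-length LRRK2 via BacMam (24 h transduction). Cells were exposed 60 min at 37 °C to an 11-point 1-in-4 dilution series starting at 10 uM; sigmoidal fit.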

[2] = system: human hepatocytes; test: Metabolic stability assay in hepatocytes; type: in vitro ADME; conditions: 0.5 μM test compound, intrinsic clearance
Description: c. Metabolic Stability Assay
Metabolic stability of compounds of the invention was evaluated in hepatocytes from human and preclinical species (e.g. rat). A test compound (0.5 μM) was incubated with 0.5 million viable hepatocytes at 37° C. in a 95% humidified incubator supplied with 5% CO2. 7-ethoxycoumarin was used as positive control and was treated in the same manner as the test compound. The incubation samples were gently mixed at 150 rpm. Incubation medium was Williams' Medium E containing 2 mM GlutaMAX™ and 25 mM HEPES. Samples were removed from incubation at a specified time interval (tx): 0, 15, 30, 60, 90 and 120 min. Reactions were terminated by adding equal volume of ice-cold acetonitrile/methanol/acetic acid (80/20/1, v/v/v) containing an internal standard (e.g. 100 ng/mL to butamide as internal standard). […] The instrument responses of the test compound and the internal standard were measured using a compound specific LC/MS/MS methodology. The percentage of remaining test compound is calculated from the peak area ratio between the remaining test compound after incubation (tx) and the test compound peak area at the beginning of incubation (tx=0 min).
The half-life (t1/2) is calculated using the following equation: […]
Metabolic stability of a test compound is expressed as Intrinsic Clearance (Clint) and is calculated from the half-life (t1/2) using the following equation: […]

With `Cc1c2c(nn1C(=O)C1CC1)OCCCNc1nc(ncc1Cl)N2` [E362, 14-Chloro-5-cyclopropanecarbonyl-4-methyl-8-oxa-2,5,6,12,16, 17-hexaazatricyclo[11.3.1.0^3,7]heptadeca-1(16),3,6,13(17),14-pentaene] the IC50 [1] was at most 100 nM and the “Clint (human)” value [2] was over 10 mL/min/g.
